Data taken from patent US20050191668A1, “Methods of using peroxisome proliferator-activated receptor alpha target genes” (priority 2004, published 2005).

Key:
Type in all cases: cell-based, human
Pa9 gene = Pa9 gene expression by real-time RT-PCR in HuH7 hepatocytes; conditions: for Pa9 (W38098) gene expression, Percentage ± SE (%): HuH7 hepatocytes, about 20-24 h, vehicle control = 100
From the text: (§1) Human hepatocyte HuH7 cells, which are epithelial cells of liver, were obtained from Japan Health Science Research Resources Bank (Osaka, Japan). Human primary adipocytes, which are connective tissue cells specialized for the synthesis and storage of fat, were obtained from Zen-Bio, Inc (Research Triangle Park, NC). Human primary skeletal muscle cells (SKMC) were obtained from Cambrex Bio Science (Walkersville, Md.). PPARα agonists, Wy14643 (Agatha, et al, 2000, Archives of Biochemistry and Biophysics 380:353-359) and fenofibrates were obtained from Cayman Chemical (Ann Arbor, Mich.) and Sigma (St Louis, Mo.), respectively.
(§2) Human HuH7 cells were cultured in Dulbecco's Modified Eagle Medium with 10% Fetal Bovine Serum (Gibco, N.Y.). Cells were treated with charcoal-stripped, delipidated calf serum (5%) (Sigma, St Louis, Mo.) for about 4-18 hours. Then, cells were treated with different concentrations of PPARα agonist (Wy14643 or fenofibrates) for about 20-24 h. Human SKM cells were cultured in Skeletal Muscle Growth Medium (Cambrex Bio Science, Walkersville, Md.), and were treated with different concentrations of PPARα agonist (Wy14643 or fenofibrates) for about 18-20 hours. Human primary adipocytes were cultured in Preadipocyte Medium, (Cat #PM—1, Zen-Bio, Inc., Research Triangle Park, NC), and were treated with different concentrations of PPARα agonist (Wy14643 or fenofibrates) for about 18-20 hours.
(§3) Total RNA was purified from cultured cells following the protocol provided by the manufacturer (Trizon method, Invitrogen Inc. Ca). The polymerase chain reaction (PCR) primers and fluorescent probes (TagMan probes) for Pa9, Pa13, and Pa21 were designed from GenBank sequences of accession numbers W30988, AB000584, and NM_080725, respectively. The primers and probes were designed using the software PrimerDesign (Applied Biosystems, Foster City, Calif.). The PCR primers for Pa9 were SEQ ID NO: 7, (5-[…]) and SEQ ID NO: 8 (5-[…]). […] The PCR primers for Pa13 were SEQ ID NO: 10 (5-[…], T) and SEQ ID NO: 11 (5-[…] T). […] The PCR primers for Pa21 were SEQ ID NO: 13 (5-[…] C) and SEQ ID NO: 14 (5-[…]). […] All primers and probes were synthesized by Keystone Labs (Camarillo, Calif.).
(§4) Reverse transcription (RT) and PCR were conducted in one step using “One-Step RT-PCR Master Mix Reagent” kit (Applied Biosystems, Foster City, Calif.) in ABI PRISM 7700 Sequence Detection System (Applied Biosystems). Each reaction was performed in a total volume of 25 μl containing 40 ng of total RNA. The reaction condition was: 48° C. for 30 minutes, 60° C. for 30 minutes, 94° C. for 5 minutes, followed by 40 cycles of 94° C. for 20 seconds and 60° C. for 1 minute. The primers for 18S ribosomal RNA were developed and provided by Applied Biosystems. The measurement of human 18S ribosomal RNA was used as an internal control for normalization of measuring and loading errors. PCR data were collected by Ct value (the cycle number at which logarithmic PCR plots cross a calculated threshold line) according to the manufacturer's guidelines and the value was used to determine the Δ^Ct (Ct of the target gene minus the Ct of 18S ribosomal RNA controls). Relative mRNA level was calculated using the equation 2^−ΔΔCt as described previously (Heid et al., 1996, Genome Res. 6:986-994).

Pa21 gene [1] = experiment: Pa21 gene expression by real-time RT-PCR in primary adipocytes; conditions: about 18-20 hours, vehicle control = 100
From the text: as §1, §2, §3, §4

Pa21 gene [2] = experiment: Pa21 gene expression by real-time RT-PCR in HuH7 hepatocytes; conditions: about 20-24 h, vehicle control = 100
From the text: as §1, §2, §3, §4

Cc1cccc(Nc2cc(Cl)nc(SCC(=O)O)n2)c1C [Wy14643]
Pa9 (W38098) gene expression, Percentage ± SE (%) (Pa9 gene; 3 uM): 90 ± 17%
Pa9 (W38098) gene expression, Percentage ± SE (%) (Pa9 gene; 10 uM): 190 ± 62.1%
Pa9 (W38098) gene expression, Percentage ± SE (%) (Pa9 gene; 30 uM): 200 ± 48%
Pa9 (W38098) gene expression, Percentage ± SE (%) (Pa9 gene; 100 uM): 540 ± 57.8%
Pa9 (W38098) gene expression, Percentage ± SE (%) (Pa9 gene; 300 uM): 690 ± 42.8%
gene expression of Pa9, Pa13, or Pa21 (statement in words) (Pa9 gene; human HuH7 cells, primary SKMU cells, or primary adipocytes (Tables 1-3)): increased gene expression
Pa21 (H4960) gene expression, Percentage ± SE (%) (Pa21 gene [1]; 10 uM): 92 ± 10%
Pa21 (H4960) gene expression, Percentage ± SE (%) (Pa21 gene [1]; 50 uM): 108 ± 2%
Pa21 (H4960) gene expression, Percentage ± SE (%) (Pa21 gene [1]; 250 uM): 314 ± 2.5%
Pa21 (H4960) gene expression, Percentage ± SE (%) (Pa21 gene [2]; 3 uM): 145.5 ± 21.9%
Pa21 (H4960) gene expression, Percentage ± SE (%) (Pa21 gene [2]; 10 uM): 163.6 ± 35%
Pa21 (H4960) gene expression, Percentage ± SE (%) (Pa21 gene [2]; 30 uM): 372.7 ± 17.8%
Pa21 (H4960) gene expression, Percentage ± SE (%) (Pa21 gene [2]; 100 uM): 227.3 ± 14.8%
Pa21 (H4960) gene expression, Percentage ± SE (%) (Pa21 gene [2]; 300 uM): 481.8 ± 12.1%
